In ChEMBL document CHEMBL2331173, “Water-mediated interactions influence the binding of thapsigargin to sarco/endoplasmic reticulum calcium adenosinetriphosphatase” (J Med Chem, 2013):

Biological target: Sarcoplasmic/endoplasmic reticulum calcium ATPase 1 (Oryctolagus cuniculus, UniProt P04191)
Test: Binding affinity to SERCA1a in sarcoplasmic reticulum vesicles of rabbit skeletal muscle after 2.5 to 6 mins by spectrophotometric analysis
Design: species or system Muscle tissue

Sarcoplasmic/endoplasmic reticulum calcium ATPase 1, sequence (P04191 whole entry): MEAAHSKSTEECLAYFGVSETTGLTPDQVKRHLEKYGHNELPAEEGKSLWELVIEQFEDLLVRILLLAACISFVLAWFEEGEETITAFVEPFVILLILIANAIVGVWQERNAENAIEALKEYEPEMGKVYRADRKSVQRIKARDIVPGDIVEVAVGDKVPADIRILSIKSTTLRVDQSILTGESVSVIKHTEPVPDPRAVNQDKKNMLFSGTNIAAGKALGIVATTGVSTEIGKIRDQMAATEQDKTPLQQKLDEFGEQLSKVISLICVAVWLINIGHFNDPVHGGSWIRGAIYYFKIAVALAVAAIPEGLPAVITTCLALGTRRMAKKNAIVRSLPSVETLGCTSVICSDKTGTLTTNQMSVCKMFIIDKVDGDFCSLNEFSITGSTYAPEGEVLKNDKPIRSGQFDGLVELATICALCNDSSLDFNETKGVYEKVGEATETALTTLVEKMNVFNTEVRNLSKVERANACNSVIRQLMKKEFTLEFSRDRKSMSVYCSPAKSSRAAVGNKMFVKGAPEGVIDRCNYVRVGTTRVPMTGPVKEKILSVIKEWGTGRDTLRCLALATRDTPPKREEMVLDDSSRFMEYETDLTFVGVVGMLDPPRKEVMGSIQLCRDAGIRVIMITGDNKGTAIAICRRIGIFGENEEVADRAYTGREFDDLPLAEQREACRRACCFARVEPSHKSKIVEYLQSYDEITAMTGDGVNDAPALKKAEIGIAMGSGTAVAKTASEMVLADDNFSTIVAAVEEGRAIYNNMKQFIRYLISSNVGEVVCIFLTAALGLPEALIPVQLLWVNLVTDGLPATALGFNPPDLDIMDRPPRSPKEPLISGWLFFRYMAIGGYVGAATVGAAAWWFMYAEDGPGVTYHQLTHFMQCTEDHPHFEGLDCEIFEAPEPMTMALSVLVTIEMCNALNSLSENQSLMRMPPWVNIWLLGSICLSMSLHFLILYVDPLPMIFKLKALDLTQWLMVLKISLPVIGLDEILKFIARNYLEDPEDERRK

| SMILES | Kd |
| --- | --- |
| C/C=C(/C)C(=O)O[C@H]1C(C)=C2[C@H]([C@@H]1OC(=O)CCCCCCC)[C@@](C)(OC(=O)CCCCCCC)C[C@H](OC(=O)CCC)[C@@]1(O)[C@H]2OC(=O)[C@@]1(C)O | 2.5 nM |
| C/C=C(/C)C(=O)O[C@H]1C(C)=C2[C@H]([C@@H]1OC(=O)c1ccccc1)[C@@](C)(OC(C)=O)C[C@H](OC(=O)CCC)[C@@]1(O)[C@H]2OC(=O)[C@@]1(C)O | 1.5 nM |
| C/C=C(/C)C(=O)O[C@H]1C(C)=C2[C@H]([C@@H]1OC(=O)CCCCCCC)[C@@](C)(OC(C)=O)C[C@H](OC(=O)CCC)[C@@]1(OC(=O)CCC)[C@H]2OC(=O)[C@@]1(C)O | 11 nM |
| C/C=C(/C)C(=O)O[C@H]1C(C)=C2[C@H]([C@@H]1OC(=O)CCCCCCC)[C@@](C)(OC(C)=O)C[C@H](OC(=O)CCC)[C@@]1(OC(=O)CCCCC)[C@H]2OC(=O)[C@@]1(C)O | 8.5 nM |
| C/C=C(/C)C(=O)O[C@H]1C(C)=C2[C@H]([C@@H]1OC(=O)CCCCCCC)[C@@](C)(OC(C)=O)C[C@H](OC(=O)CCC)[C@@]1(OC(=O)C(C)C)[C@H]2OC(=O)[C@@]1(C)O | 13 nM |
| C/C=C(/C)C(=O)O[C@H]1C(C)=C2[C@H]([C@@H]1OC(=O)CCCCCCC)[C@@](C)(OC(C)=O)C[C@H](OC(=O)CCC)[C@@]1(OC(=O)CCCCCCC)[C@H]2OC(=O)[C@@]1(C)O | 55 nM |
| C/C=C(/C)C(=O)O[C@H]1C(C)=C2[C@H]([C@@H]1OC(=O)CCCCCCC)[C@@](C)(OC(C)=O)C[C@H](OC(=O)CCC)[C@@]1(OC(C)=O)[C@H]2OC(=O)[C@@]1(C)O | 2.6 nM |
| C/C=C(/C)C(=O)O[C@H]1C(C)=C2[C@H]([C@@H]1OC(=O)CCCCCCC)[C@@](C)(OC(C)=O)C[C@H](OC(=O)CCC)[C@@]1(O)[C@H]2O[C@H]2N=C(C)O[C@]21C | 1.7 nM |
| C/C=C(/C)C(=O)O[C@H]1C(C)=C2[C@H]([C@@H]1OC(=O)CCCCCCC)[C@@](C)(OC(C)=O)C[C@H](OC(=O)CCC)[C@@]1(O)[C@H]2O[C@H]2N=C(CCC)O[C@]21C | 20 nM |
| C/C=C(/C)C(=O)O[C@H]1C(C)=C2[C@H]([C@@H]1OC(=O)CCCCCCC)[C@@](C)(OC(C)=O)C[C@H](OC(=O)CCC)[C@@]1(O)[C@H]2O[C@H]2N=C(CCOCC)O[C@]21C | 79 nM |
| C/C=C(/C)C(=O)O[C@H]1C(C)=C2[C@H]([C@@H]1OC(=O)CCCCCCC)[C@@](C)(OC(C)=O)C[C@H](OC(=O)CCC)[C@]13O[C@]1(C)C(=O)O[C@@H]23 | 13 nM |
| C/C=C(/C)C(=O)O[C@H]1C(C)=C2[C@H]([C@@H]1OC(=O)CCCCCCC)[C@@](C)(OC(C)=O)C[C@H](OC(=O)CCC)[C@@]1(O)[C@H]2O[C@H](OC(C)=O)[C@@]1(C)OC(C)=O (relative stereo) | 9.4 nM |
| C/C=C(/C)C(=O)O[C@H]1C(C)=C2[C@H]([C@@H]1OC(=O)CCCCCCC)[C@@](C)(OC(C)=O)C[C@H](O)[C@@]1(O)[C@H]2OC(=O)[C@@]1(C)O [DEBUTANOYLTHAPSIGARGIN] | 10 nM |
| C/C=C(/C)C(=O)O[C@H]1C(C)=C2[C@H]([C@@H]1OC(=O)CCCCCCC)[C@@](C)(OC(C)=O)C[C@H](OC(=O)CCC)[C@@]1(O)[C@H]2OC(=O)[C@@]1(C)O [THAPSIGARGIN] | 0.2 nM |
